Measurements taken from article PMC5218480 (PLoS ONE, 2017).

System: MV-4-11 cells
Test: Gene expression microarray analysis (Affymetrix PrimeView) and GSEA
Format: cell-based, human
Set-up: RFU PODN (11730768_x_at) / Fold change /veh PODN (11730768_x_at) / RFU LINC00158 (11744669_a_at) / Fold change /veh LINC00158 (11744669_a_at) / RFU DUSP10 (11751237_a_at) / Fold change /veh DUSP10 (11751237_a_at) / RFU ID3 (11757404_x_at) / Fold change /veh ID3 (11757404_x_at) / RFU PLEKHG5 (11737974_s_at) / Fold change /veh PLEKHG5 (11737974_s_at) / RFU LRRC4B (11730491_at) / Fold change /veh LRRC4B (11730491_at) / RFU GIMAP4 (11747438_a_at) / Fold change /veh GIMAP4 (11747438_a_at) / RFU KRT8 (11758183_x_at) / Fold change /veh KRT8 (11758183_x_at) / RFU CNN1 (11734310_a_at) / Fold change /veh CNN1 (11734310_a_at) / RFU VPS37D (11726825_at) / Fold change /veh VPS37D (11726825_at) / RFU C10orf10 (11716522_x_at) / Fold change /veh C10orf10 (11716522_x_at) / RFU KIR2DL2 /// KIR2DL4 /// KIR2DL5A /// KIR2DL5B /// KIR2DS1 /// KIR2DS2 /// KIR2DS3 /// KIR2DS4 /// KIR3DL3 /// KIR3DL3 /// KIR3DS1 (11738374_at) / Fold change /veh KIR2DL2 /// KIR2DL4 /// KIR2DL5A /// KIR2DL5B /// KIR2DS1 /// KIR2DS2 /// KIR2DS3 /// KIR2DS4 /// KIR3DL3 /// KIR3DL3 /// KIR3DS1 (11738374_at) / RFU C1QL1 (11718748_at) / Fold change /veh C1QL1 (11718748_at) / RFU TMPRSS4 (11747572_a_at) / Fold change /veh TMPRSS4 (11747572_a_at) / RFU HAMP (11756126_x_at) / Fold change /veh HAMP (11756126_x_at) / RFU RNFT2 (11725882_a_at) / Fold change /veh RNFT2 (11725882_a_at) / RFU NR4A2 (11747474_a_at) / Fold change /veh NR4A2 (11747474_a_at) / RFU ABCC12 (11746883_a_at) / Fold change /veh ABCC12 (11746883_a_at) / RFU TMEM136 (11760407_x_at) / Fold change /veh TMEM136 (11760407_x_at) / RFU CLDN22 /// WWC2 (11732394_at) / Fold change /veh CLDN22 /// WWC2 (11732394_at) / RFU HLA-DPB1 (11760878_x_at) / Fold change /veh HLA-DPB1 (11760878_x_at) / RFU SPINT1 (11716480_a_at) / Fold change /veh SPINT1 (11716480_a_at) / RFU GAP43 (11754022_s_at) / Fold change /veh GAP43 (11754022_s_at) / RFU A4GNT (11735810_at) / Fold change /veh A4GNT (11735810_at) / RFU PRB3 (11715151_x_at) / Fold change /veh PRB3 (11715151_x_at) / RFU TUBB4B (11761932_at) / Fold change /veh TUBB4B (11761932_at) / RFU CAPN14 (11732068_a_at) / Fold change /veh CAPN14 (11732068_a_at) / RFU TMCC2 (11721928_a_at) / Fold change /veh TMCC2 (11721928_a_at) / RFU IRGQ (11745062_a_at) / Fold change /veh IRGQ (11745062_a_at) / RFU FAM174B (11720279_a_at) / Fold change /veh FAM174B (11720279_a_at) / RFU TMPRSS4 (11748680_a_at) / Fold change /veh TMPRSS4 (11748680_a_at) / RFU FAM212B (11763350_a_at) / Fold change /veh FAM212B (11763350_a_at) / RFU PLEKHG5 (11743358_a_at) / Fold change /veh PLEKHG5 (11743358_a_at) / RFU ZSCAN30 (11745921_a_at) / Fold change /veh ZSCAN30 (11745921_a_at) / RFU CMKLR1 (11741424_a_at) / Fold change /veh CMKLR1 (11741424_a_at) / RFU LOC101060620 /// MAPK8IP1 (11723275_at) / Fold change /veh LOC101060620 /// MAPK8IP1 (11723275_at) / RFU SPTSSB (11747773_x_at) / Fold change /veh SPTSSB (11747773_x_at) / RFU PRSS12 (11739890_at) / Fold change /veh PRSS12 (11739890_at) / RFU BIN1 (11741810_x_at) / Fold change /veh BIN1 (11741810_x_at) / RFU WNT11 (11732464_a_at) / Fold change /veh WNT11 (11732464_a_at) / RFU C10orf10 (11716521_a_at) / Fold change /veh C10orf10 (11716521_a_at) / RFU C5orf56 (11738089_at) / Fold change /veh C5orf56 (11738089_at) / RFU CYB561 (11721691_x_at) / Fold change /veh CYB561 (11721691_x_at) / RFU ANKRD19P (11752326_a_at) / Fold change /veh ANKRD19P (11752326_a_at) / RFU OR2T12 /// OR2T33 /// OR2T8 (11738714_s_at) / Fold change /veh OR2T12 /// OR2T33 /// OR2T8 (11738714_s_at) / RFU VCAN (11748164_a_at) / Fold change /veh VCAN (11748164_a_at) / RFU JSRP1 (11732532_at) / Fold change /veh JSRP1 (11732532_at) / RFU KRTAP10-11 (11738290_x_at) / Fold change /veh KRTAP10-11 (11738290_x_at) / RFU MYO3A (11730013_a_at) / Fold change /veh MYO3A (11730013_a_at) / RFU EBF3 (11725865_a_at) / Fold change /veh EBF3 (11725865_a_at) / RFU CAMK2N1 (11719241_x_at) / Fold change /veh CAMK2N1 (11719241_x_at) / RFU C5orf56 (11738088_a_at) / Fold change /veh C5orf56 (11738088_a_at) / RFU OLFML3 (11715873_a_at) / Fold change /veh OLFML3 (11715873_a_at) / RFU LOC100653217 /// NTM (11731650_a_at) / Fold change /veh LOC100653217 /// NTM (11731650_a_at) / RFU MAPK11 (11762145_a_at) / Fold change /veh MAPK11 (11762145_a_at) / RFU FIZ1 (11724087_x_at) / Fold change /veh FIZ1 (11724087_x_at) / RFU OASL (11726364_x_at) / Fold change /veh OASL (11726364_x_at) / RFU SOX15 (11748057_x_at) / Fold change /veh SOX15 (11748057_x_at) / RFU CD79A (11719716_a_at) / Fold change /veh CD79A (11719716_a_at) / RFU HIST1H1D (11736915_at) / Fold change /veh HIST1H1D (11736915_at) / RFU CASKIN2 (11723855_a_at) / Fold change /veh CASKIN2 (11723855_a_at) / RFU LOC730098 (11760151_x_at) / Fold change /veh LOC730098 (11760151_x_at) / RFU OR4N2 (11742367_at) / Fold change /veh OR4N2 (11742367_at) / RFU PRRT2 (11749266_a_at) / Fold change /veh PRRT2 (11749266_a_at) / RFU SNX32 (11753110_a_at) / Fold change /veh SNX32 (11753110_a_at) / RFU CDHR5 (11726645_a_at) / Fold change /veh CDHR5 (11726645_a_at) / RFU RCAN1 (11760418_a_at) / Fold change /veh RCAN1 (11760418_a_at) / RFU FAM167A (11723789_a_at) / Fold change /veh FAM167A (11723789_a_at) / RFU FAM26E (11764081_at) / Fold change /veh FAM26E (11764081_at) / RFU ISYNA1 (11749810_s_at) / Fold change /veh ISYNA1 (11749810_s_at) / RFU ACY1 (11761880_at) / Fold change /veh ACY1 (11761880_at) / RFU 11764098_at / Fold change /veh 11764098_at / RFU SAMD14 (11745864_x_at) / Fold change /veh SAMD14 (11745864_x_at) / RFU NPB (11741838_a_at) / Fold change /veh NPB (11741838_a_at) / RFU TMPRSS6 (11731388_a_at) / Fold change /veh TMPRSS6 (11731388_a_at) / RFU KRTAP10-2 (11738614_at) / Fold change /veh KRTAP10-2 (11738614_at) / RFU ARHGAP8 /// PRR5-ARHGAP8 (11727945_x_at) / Fold change /veh ARHGAP8 /// PRR5-ARHGAP8 (11727945_x_at) / RFU KRTAP5-7 /// NADSYN1 (11734609_at) / Fold change /veh KRTAP5-7 /// NADSYN1 (11734609_at) / RFU RASL12 (11751679_a_at) / Fold change /veh RASL12 (11751679_a_at) / RFU CDKN2B (11736163_a_at) / Fold change /veh CDKN2B (11736163_a_at) / RFU PRF1 (11729649_at) / Fold change /veh PRF1 (11729649_at) / RFU, ZNF638 /// ZNF638-IT1 / Fold change vs veh, ZNF638 /// ZNF638-IT1 / RFU, PANK3 / Fold change vs veh, PANK3 / RFU, SH3YL1 / Fold change vs veh, SH3YL1 / RFU, ZEB2 / Fold change vs veh, ZEB2 / RFU, NRIP1 / Fold change vs veh, NRIP1 / RFU, PTTG1IP / Fold change vs veh, PTTG1IP / RFU, CAPN2 / Fold change vs veh, CAPN2 / RFU, MED14 / Fold change vs veh, MED14 / RFU, SNORA58 / Fold change vs veh, SNORA58 / RFU, C1orf63 / Fold change vs veh, C1orf63 / RFU, LRRFIP1 / Fold change vs veh, LRRFIP1 / RFU, NDUFAF7 / Fold change vs veh, NDUFAF7 / RFU, SLC12A2 / Fold change vs veh, SLC12A2 / RFU, IBTK / Fold change vs veh, IBTK / RFU, ESF1 / Fold change vs veh, ESF1 / Fold change vs veh, TMEM50B / RFU, TAOK1 / Fold change vs veh, TAOK1 / RFU, ACBD3 / Fold change vs veh, ACBD3 / RFU, TMA16 / Fold change vs veh, TMA16 / RFU, RWDD3 / Fold change vs veh, RWDD3 / RFU, BCAT1 / Fold change vs veh, BCAT1 / RFU, EDEM3 / Fold change vs veh, EDEM3 / RFU, TMEM33 / Fold change vs veh, TMEM33 / RFU, WDR75 / Fold change vs veh, WDR75 / RFU, AHCTF1 / Fold change vs veh, AHCTF1 / RFU, TFRC / Fold change vs veh, TFRC / RFU, ZDHHC17 / Fold change vs veh, ZDHHC17 / RFU, NOM1 / Fold change vs veh, NOM1 / RFU, ARL8B / Fold change vs veh, ARL8B / RFU, ZBTB11 / Fold change vs veh, ZBTB11 / RFU, TAMM41 / Fold change vs veh, TAMM41 / RFU, KIAA1704 /// LOC100996395 / Fold change vs veh, KIAA1704 /// LOC100996395 / RFU, ING1 / Fold change vs veh, ING1 / RFU, TRMT61B / Fold change vs veh, TRMT61B / RFU, FUBP3 / Fold change vs veh, FUBP3 / RFU, TP53 / Fold change vs veh, TP53 / RFU, TNKS2 / Fold change vs veh, TNKS2 / RFU, ZFP14 / Fold change vs veh, ZFP14 / RFU, ACTR2 / Fold change vs veh, ACTR2 / RFU, PPP3R1 / Fold change vs veh, PPP3R1 / RFU, PIK3R1 / Fold change vs veh, PIK3R1 / RFU, HNRNPA1 / Fold change vs veh, HNRNPA1 / RFU, RNF170 / Fold change vs veh, RNF170 / RFU, ZNF28 / Fold change vs veh, ZNF28 / RFU, RNGTT / Fold change vs veh, RNGTT / RFU, OGT / Fold change vs veh, OGT / RFU, BRD1 / Fold change vs veh, BRD1 / RFU, MARS / Fold change vs veh, MARS / RFU, ZNF655 / Fold change vs veh, ZNF655 / RFU, FAHD1 / Fold change vs veh, FAHD1 / RFU, BDP1 / Fold change vs veh, BDP1 / RFU, LRRCC1 / Fold change vs veh, LRRCC1 / RFU, ARID1A / Fold change vs veh, ARID1A / RFU, ZNF146 / Fold change vs veh, ZNF146 / RFU, ZNF330 / Fold change vs veh, ZNF330 / RFU, GPN3 / Fold change vs veh, GPN3 / RFU, C9orf123 / Fold change vs veh, C9orf123 / RFU, N4BP2L2 / Fold change vs veh, N4BP2L2 / RFU, ARFIP1 / Fold change vs veh, ARFIP1 / RFU, FAM179B / Fold change vs veh, FAM179B / RFU, BCL10 / Fold change vs veh, BCL10 / RFU, UHRF1BP1L / Fold change vs veh, UHRF1BP1L / RFU, BET1 / Fold change vs veh, BET1 / RFU, CNOT2 / Fold change vs veh, CNOT2 / RFU, ZNF268 / Fold change vs veh, ZNF268 / Fold change vs veh, ZNF507 / RFU, DGCR2 / Fold change vs veh, DGCR2 / RFU, WDSUB1 / Fold change vs veh, WDSUB1 / Fold change vs veh, HSP90B1 /// MIR3652 / RFU, ADSS / Fold change vs veh, ADSS / RFU, GK / Fold change vs veh, GK / RFU, ZNF148 / Fold change vs veh, ZNF148 / RFU, TAF9 / Fold change vs veh, TAF9 / RFU, SLC1A5 / Fold change vs veh, SLC1A5 / RFU, SLMO2 / Fold change vs veh, SLMO2 / RFU, ABCC4 / Fold change vs veh, ABCC4 / RFU, LOC101060439 /// RAP1B / Fold change vs veh, LOC101060439 /// RAP1B / RFU, RFX7 / Fold change vs veh, RFX7 / RFU, GTPBP10 / Fold change vs veh, GTPBP10 / RFU, CNEP1R1 / Fold change vs veh, CNEP1R1 / RFU, BIVM-ERCC5 /// ERCC5 / Fold change vs veh, BIVM-ERCC5 /// ERCC5 / RFU, ILF3 / Fold change vs veh, ILF3 / RFU 11762660_at / Fold change /veh 11762660_at / RFU VCAN (11757783_s_at) / Fold change /veh VCAN (11757783_s_at) / RFU DDX43 (11728927_at) / Fold change /veh DDX43 (11728927_at) / RFU KRT8 (11758188_x_at) / Fold change /veh KRT8 (11758188_x_at) / RFU NKD1 (11759106_at) / Fold change /veh NKD1 (11759106_at) / RFU SRD5A1 (11742802_a_at) / Fold change /veh SRD5A1 (11742802_a_at) / RFU TPSAB1 /// TPSB2 (11721975_s_at) / Fold change /veh TPSAB1 /// TPSB2 (11721975_s_at) / RFU GSTM3 (11746129_a_at) / Fold change /veh GSTM3 (11746129_a_at) / RFU IL23R (11737362_x_at) / Fold change /veh IL23R (11737362_x_at) / RFU TMEM51 (11727254_a_at) / Fold change /veh TMEM51 (11727254_a_at) / RFU PIWIL2 (11732686_x_at) / Fold change /veh PIWIL2 (11732686_x_at) / RFU ORM1 (11744905_x_at) / Fold change /veh ORM1 (11744905_x_at) / RFU CCDC152 (11743942_at) / Fold change /veh CCDC152 (11743942_at) / RFU ECM1 (11717891_a_at) / Fold change /veh ECM1 (11717891_a_at) / RFU IL23R (11748794_a_at) / Fold change /veh IL23R (11748794_a_at) / RFU TNFAIP8L3 (11732012_x_at) / Fold change /veh TNFAIP8L3 (11732012_x_at) / RFU MBOAT4 (11741988_at) / Fold change /veh MBOAT4 (11741988_at) / RFU 11764193_at / Fold change /veh 11764193_at / RFU TMEM53 (11763286_at) / Fold change /veh TMEM53 (11763286_at) / RFU MAGEB2 (11727129_at) / Fold change /veh MAGEB2 (11727129_at) / RFU TMEM200A (11744735_a_at) / Fold change /veh TMEM200A (11744735_a_at) / RFU CCDC152 (11751479_a_at) / Fold change /veh CCDC152 (11751479_a_at) / RFU FAM211A (11726209_a_at) / Fold change /veh FAM211A (11726209_a_at) / RFU RGS16 (11746705_a_at) / Fold change /veh RGS16 (11746705_a_at) / RFU VCAN (11755009_s_at) / Fold change /veh VCAN (11755009_s_at) / RFU RHOB (11743442_s_at) / Fold change /veh RHOB (11743442_s_at) / RFU RGS16 (11720943_a_at) / Fold change /veh RGS16 (11720943_a_at) / RFU RGS16 (11720944_at) / Fold change /veh RGS16 (11720944_at) / RFU, VPS4B / Fold change vs veh, VPS4B / RFU, CREB1 / Fold change vs veh, CREB1 / RFU, DNAJC13 / Fold change vs veh, DNAJC13 / RFU, GNAQ / Fold change vs veh, GNAQ / RFU, CDK5R1 / Fold change vs veh, CDK5R1 / RFU, ZRANB3 / Fold change vs veh, ZRANB3 / RFU, CUL4A / Fold change vs veh, CUL4A / RFU, CCNY / Fold change vs veh, CCNY / RFU, UFL1 / Fold change vs veh, UFL1 / RFU, COG3 / Fold change vs veh, COG3 / RFU, DIAPH2 / Fold change vs veh, DIAPH2 / RFU, SKA2 / Fold change vs veh, SKA2 / RFU, AFF3 / Fold change vs veh, AFF3 / RFU, LMF1 / Fold change vs veh, LMF1 / RFU, IPO11 / Fold change vs veh, IPO11 / RFU, DFFB / Fold change vs veh, DFFB / RFU, FOXP1 / Fold change vs veh, FOXP1 / RFU, CARD8 / Fold change vs veh, CARD8 / RFU, STRN3 / Fold change vs veh, STRN3 / RFU, ADK / Fold change vs veh, ADK / RFU, RASSF2 / Fold change vs veh, RASSF2 / RFU, WIPF1 / Fold change vs veh, WIPF1 / RFU, LARP1B / Fold change vs veh, LARP1B / RFU, RASA1 / Fold change vs veh, RASA1 / RFU, RB1 / Fold change vs veh, RB1 / RFU, PPFIA1 / Fold change vs veh, PPFIA1 / RFU, MAT2A / Fold change vs veh, MAT2A / RFU, CCT5 / Fold change vs veh, CCT5 / RFU, WDR92 / Fold change vs veh, WDR92 / RFU, CUX1 / Fold change vs veh, CUX1 / RFU, TTC7A / Fold change vs veh, TTC7A / RFU, TMEM135 / Fold change vs veh, TMEM135 / RFU, DEPTOR / Fold change vs veh, DEPTOR / RFU, CPM / Fold change vs veh, CPM / RFU, DNAJB6 / Fold change vs veh, DNAJB6 / RFU, CACNA2D3 / Fold change vs veh, CACNA2D3 / RFU, DTX4 / Fold change vs veh, DTX4 / RFU, TFCP2 / Fold change vs veh, TFCP2 / RFU, GMCL1 /// GMCL1P1 / Fold change vs veh, GMCL1 /// GMCL1P1 / RFU, AEBP2 / Fold change vs veh, AEBP2 / RFU, SNHG1 /// SNORD22 /// SNORD25 /// SNORD26 /// SNORD27 /// SNORD28 /// SNORD29 /// SNORD31 / Fold change vs veh, SNHG1 /// SNORD22 /// SNORD25 /// SNORD26 /// SNORD27 /// SNORD28 /// SNORD29 /// SNORD31 / Fold change (Aza/veh), C12orf56 (ProbeSet 11735607_a_at) / Fold change (ACY-1035/veh), C12orf56 (ProbeSet 11735607_a_at) / Fold change (Aza/veh), FGFR1OP (ProbeSet 11751329_s_at) / Fold change (ACY-1035/veh), FGFR1OP (ProbeSet 11751329_s_at) / Fold change (Aza/veh), VPS36 (ProbeSet 11739960_a_at) / Fold change (ACY-1035/veh), VPS36 (ProbeSet 11739960_a_at) / RFU SYPL1 (11715823_x_at) / Fold change /veh SYPL1 (11715823_x_at) / RFU IGFBP7 (11715501_s_at) / Fold change /veh IGFBP7 (11715501_s_at) / RFU REEP3 (11722064_at) / Fold change /veh REEP3 (11722064_at) / RFU IGLL1 (11728026_x_at) / Fold change /veh IGLL1 (11728026_x_at): dose or concentration left out as unconfirmed
Settings: ProbeSet 11720154_at; LIST B

## Nc1ccc(-c2cccs2)cc1NC(=O)c1ccc2c(c1)cc(C1CC1)n2CCN1CCOCC1 [ACY-1035]
  Fold change vs veh, NRIP1: 0.88
